# Data: publication PMC9737972, “Dual LSD1 and HDAC6 Inhibition Induces Doxorubicin Sensitivity in Acute Myeloid Leukemia Cells” (Cancers, 2022)
# Key:
# MOLM-13 [1] = assay: Cell Titer-Glo cell viability, MOLM-13; assay type: cell-based; conditions: Homo sapiens, MOLM-13; 120 h, ± standard deviation, three biological repeats; read-out: IC50 cell viability MOLM-13
# HDAC-3/NcoR2 = biological target: T1, HDAC-3/NcoR2 (Homo sapiens, UniProt O15379); assay: HDAC-Glo I/II enzyme assay, HDAC3; assay type: biochemical; conditions: ± standard error, three independent measurements
# T1 construct: purchased BPS Bioscience 50003
# [2] = biological target: T2, Human recombinant C-ter-His-FLAG-HDAC1 (Homo sapiens, UniProt Q13547); assay: HDAC-Glo I/II enzyme assay, HDAC1; assay type: biochemical; conditions: ± standard error, three independent measurements
# T2 construct: His (C); FLAG (C); purchased BPS Bioscience 50051
# K-562 = assay: Cell Titer-Glo cell viability, K-562; assay type: cell-based; conditions: Homo sapiens, K562; 120 h, ± standard deviation, three biological repeats; read-out: IC50 cell viability K-562
# Jurkat = assay: Cell Titer-Glo cell viability, Jurkat; assay type: cell-based; conditions: Homo sapiens, 120 h, ± standard deviation, three biological repeats, read-out: IC50 cell viability Jurkat
# THP-1 cells = assay: RT-qPCR gene expression in THP-1 cells; assay type: cell-based; conditions: for p21 mRNA expression: THP-1 cells, 1 μM, 24 h
# Method: NucleoSpin™ RNA Plus Isolation Kit (Macherey Nagel™, Dueren, Germany, 740955.50) and M-MLV Reverse Transcriptase kit (Thermo Fisher Scientific, Waltham, MA, USA, #28025013) protocols were employed for RNA isolation and cDNA synthesis, respectively, with 500 ng of RNA converted to cDNA for each sample. Gene expression levels were quantified with qRT–PCR method using a LightCycler 480 SYBR Green I Master (Roche Diagnostics, Penzberg, Germany, #50-720-3180) and normalized to β-actin or GAPDH. Briefly, 10 ng of cDNA template was amplified using 10 μL LightCycler 480 SYBR Green I Master (Roche Diagnostics), and gene-specific primers (Table S1) mixed in a final volume of 20 μL. The samples were incubated at 95 °C for 5 minutes, followed by 40 cycles of 95 °C for 10 seconds, 55 °C for 30 seconds, and 72 °C for 1 second. The relative amounts of gene expressions were calculated with the 2^(−ΔΔCT) method. All analyses were performed in duplicates and three biological replicas.
# Figure 4 Assessment of biological activity through changes in methylation or acetylation and cell differentiation (A–C). Colored graphs illustrate epidrug targets and visualize expected outcomes upon target inhibition. Blue cylinders represent histone octomers (A,B) and green tubes represent microtubules (C). […] Histone methylation, histone acetylation, and α-tubulin acetylation levels were quantified from Western blot band intensities (Figure S18). Full Western blot images can be found in Figure S30. (D,E) Expression levels of mRNA were measured by RT-qPCR analysis and were normalized to two housekeeping genes, β-actin and GAPDH, for p21 and CD11b and CD86. […] Relative expression was determined with the 2(^−ΔΔCT) method, and the data are represented as the average ± standard error of the mean of two biological repeats with technical duplicates. (* p < 0.05, ** p < 0.01 student t-test). Illustrations were generated in BioRender.com.
# MOLM-13 [3] = assay: Combination treatment with doxorubicin, MOLM-13 cell viability; assay type: cell-based; conditions: iDual 0.5 μM, iHDAC6 0.5 μM, GSK2879552 1.25 μM, ricolinostat […], 72 h then + doxorubicin 2 nM 48 h
# T1 sequence (O15379 whole entry): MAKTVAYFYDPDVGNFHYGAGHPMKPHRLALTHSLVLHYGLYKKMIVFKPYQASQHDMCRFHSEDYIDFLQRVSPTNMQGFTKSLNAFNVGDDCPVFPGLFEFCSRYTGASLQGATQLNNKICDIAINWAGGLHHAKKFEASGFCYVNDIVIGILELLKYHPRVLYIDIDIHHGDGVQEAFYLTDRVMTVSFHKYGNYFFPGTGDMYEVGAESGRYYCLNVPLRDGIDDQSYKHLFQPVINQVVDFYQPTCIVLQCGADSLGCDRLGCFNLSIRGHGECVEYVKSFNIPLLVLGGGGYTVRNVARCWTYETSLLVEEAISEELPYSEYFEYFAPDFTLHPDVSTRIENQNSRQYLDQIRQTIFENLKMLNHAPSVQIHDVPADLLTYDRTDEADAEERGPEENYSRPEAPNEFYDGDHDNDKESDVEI
# T1 sequence (Q9Y618 395-489 partner limits assumed): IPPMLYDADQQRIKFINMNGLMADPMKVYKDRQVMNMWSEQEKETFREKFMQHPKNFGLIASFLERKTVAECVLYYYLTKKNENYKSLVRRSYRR
# T2 sequence (Q13547 whole entry): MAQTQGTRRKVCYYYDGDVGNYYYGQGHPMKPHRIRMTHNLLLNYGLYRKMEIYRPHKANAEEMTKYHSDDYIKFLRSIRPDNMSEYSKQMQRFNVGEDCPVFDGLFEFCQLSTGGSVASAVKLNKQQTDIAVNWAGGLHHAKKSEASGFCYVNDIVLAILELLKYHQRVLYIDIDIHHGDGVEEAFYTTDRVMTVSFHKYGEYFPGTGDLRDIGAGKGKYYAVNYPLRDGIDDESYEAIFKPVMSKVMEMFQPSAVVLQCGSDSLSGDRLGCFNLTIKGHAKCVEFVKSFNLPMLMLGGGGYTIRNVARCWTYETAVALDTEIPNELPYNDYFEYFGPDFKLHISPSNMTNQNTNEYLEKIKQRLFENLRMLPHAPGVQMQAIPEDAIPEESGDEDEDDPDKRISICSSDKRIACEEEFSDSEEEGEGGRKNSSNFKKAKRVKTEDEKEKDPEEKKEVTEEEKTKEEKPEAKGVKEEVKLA
Structure (SMILES),IC50 (MOLM-13 [1]) [µM],IC50 (HDAC-3/NcoR2) [µM],IC50 [2] [µM],IC50 (K-562) [µM],IC50 (Jurkat) [µM],p21 mRNA expression (THP-1 cells),cell viability after priming with compound and co-treatment with doxorubicin 2 nM (MOLM-13 [3]),"ATM expression increase (THP-1 cells; THP-1, 5 μM, 72 h)","ATR expression increase (THP-1 cells; THP-1, 5 μM, 72 h)","expression of a panel of ABC transporters (THP-1 cells; THP-1, 5 μM, 72 h)","expression of doxorubicin sensitizer genes (AGPAT9, ALOX5, BTG1, HIPK2, IFI44L, LRP1) (THP-1 cells; THP-1, 5 μM, 72 h, all targets of Table 3 except Wnt7B)","Rad51 expression increase (THP-1 cells; THP-1, 5 μM, 72 h, p ≤ 0.001)"
O=C(NO)c1ccc(CN2CCC(CNC3(c4ccccc4)CC3)CC2)cc1 [iHDAC6],6.7 ± 1.6,4.09 ± 0.26,7.57 ± 0.29,17.6 ± 1.6,10.7 ± 0.8,increased,relatively ineffective,,,,,
O=C(NO)c1ccc(CN2CCC(CN[C@@H]3C[C@H]3c3ccccc3)CC2)cc1 (relative stereo) [iDual],1.3 ± 0.4,2.29 ± 0.14,5.31 ± 0.25,16.6 ± 2.7,15.5 ± 1.4,increased,greatest decrease,~ two-fold,~ two-fold,no decrease,upregulated,three-fold
